Tests used:
HS-PSS [1] = assay: relative IC50 (inflection point of fitted dose-response curve, CellTiter-Glo viability, 72 h; top asymptote may be below 50% inhibition); higher = less potent
In short: (§1)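 Viability of MPNST cell lines and primary human Schwann cells was read as CellTiter-Glo ATP luminescence after 72 h at 37 °C, 5% CO2, in 384-well plates seeded with 750–1000 cells per well. Each compound had been preprinted at five concentrations in 10-fold steps. Signals were scaled between vehicle and positive-control wells, duplicates averaged where present, and fitted with four-parameter logistic curves. Drug sensitivity score and relative IC50 (censored at the top concentration) come from those fits, and percent inhibition is taken at the top concentration.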

YST-1 = assay: as above
In short: as §1

HS-Sch-2 = assay: as above
In short: as §1

HS-PSS [2] = assay: relative IC50 (inflection point of fitted dose-response curve, CellTox-Green cytotoxicity, 72 h; top asymptote may be below 50%); higher = less potent
In short: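 MPNST cell lines and primary human Schwann cells were grown for 72 h at 37 °C in 384-well plates containing five 10-fold compound dilutions. CellTox-Green, added before seeding at a final 1:1000 dilution, gave fluorescence from DNA released by disrupted cells, and signals were scaled to vehicle and positive-control wells. Curves were fitted with a four-parameter logistic model. Drug sensitivity score and relative IC50 come from these fits, with IC50 censored at the top concentration.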

CCNC(=O)c1noc(-c2cc(C(C)C)c(O)cc2O)c1-c1ccc(CN2CCOCC2)cc1 [Luminespib]
relative IC50 (HS-PSS [1]): 39.3 nM
relative IC50 (YST-1): 10.3 nM
relative IC50 (HS-Sch-2): 11 nM
relative IC50 (HS-PSS [2]): 51.8 nM

CN[C@@H](C)C(=O)N[C@H](C(=O)N1CCC[C@H]1c1nc(C(=O)c2ccc(F)cc2)cs1)C1CCCCC1 [LCL161]
relative IC50 (HS-PSS [1]): 3860 nM
relative IC50 (YST-1): 4260 nM
relative IC50 (HS-Sch-2): 7520 nM

N[C@@H]1CCCN(c2c(/C=C3\SC(=O)NC3=O)cccc2-c2ccccc2)C1 [AZD1208]
relative IC50 (HS-PSS [1]): > 10000 nM
relative IC50 (YST-1): 204 nM
relative IC50 (HS-Sch-2): > 10000 nM
relative IC50 (HS-PSS [2]): > 10000 nM

Cc1cc(Nc2cc(N3CCN(C)CC3)nc(Sc3ccc(NC(=O)C4CC4)cc3)n2)n[nH]1 [Tozasertib]
relative IC50 (HS-PSS [1]): 315 nM
relative IC50 (YST-1): 42.1 nM
relative IC50 (HS-Sch-2): 552 nM
relative IC50 (HS-PSS [2]): > 10000 nM

COc1cc(NS(C)(=O)=O)ccc1Nc1c2ccccc2nc2ccccc12 [Amsacrine]
relative IC50 (HS-PSS [1]): 1250 nM
relative IC50 (YST-1): 252 nM
relative IC50 (HS-Sch-2): 634 nM

Cc1sc2c(c1C)C(c1ccc(Cl)cc1)=N[C@@H](CC(=O)Nc1ccc(O)cc1)c1nnc(C)n1-2 [OTX015]
relative IC50 (HS-PSS [1]): 321 nM
relative IC50 (YST-1): 162 nM
relative IC50 (HS-Sch-2): 223 nM
relative IC50 (HS-PSS [2]): > 10000 nM

Cc1cc(Nc2cc(N3CCN(C)CC3)nc(/C=C/c3ccccc3)n2)n[nH]1 [ENMD-2076]
relative IC50 (HS-PSS [1]): 1060 nM
relative IC50 (YST-1): 361 nM
relative IC50 (HS-Sch-2): 763 nM
relative IC50 (HS-PSS [2]): 2290 nM

O=c1sn(-c2cccc3ccccc23)c(=O)n1Cc1ccccc1 [Tideglusib]
relative IC50 (HS-PSS [1]): > 3000 nM
relative IC50 (YST-1): > 3000 nM
relative IC50 (HS-Sch-2): > 3000 nM
relative IC50 (HS-PSS [2]): > 3000 nM

COc1ccc(-c2ccc3ncc4c(c3c2)n(-c2ccc(N3CCNCC3)c(C(F)(F)F)c2)c(=O)n4C)cn1 [NVP-BGT226]
relative IC50 (HS-PSS [1]): 40.4 nM
relative IC50 (YST-1): 17.9 nM
relative IC50 (HS-Sch-2): 12.5 nM
relative IC50 (HS-PSS [2]): 335 nM

O=C(/C=C\n1cnc(-c2cc(C(F)(F)F)cc(C(F)(F)F)c2)n1)NNc1ccccn1 [Verdinexor]
relative IC50 (HS-PSS [1]): 137 nM
relative IC50 (YST-1): 144 nM
relative IC50 (HS-Sch-2): 137 nM

Cc1c(NC(=O)OC[C@@H]2COCCN2)cn2ncnc(Nc3ccc4c(cnn4Cc4cccc(F)c4)c3)c12
relative IC50 (HS-PSS [1]): 2150 nM
relative IC50 (YST-1): 1000 nM
relative IC50 (HS-Sch-2): 1990 nM

Cc1ncc(-c2ccnc(Nc3ccc(S(C)(=O)=O)cc3)n2)n1C(C)C [AZD-5438]
relative IC50 (HS-PSS [1]): 367 nM
relative IC50 (YST-1): 1450 nM
relative IC50 (HS-Sch-2): 1900 nM

O=C1c2ccccc2-c2n[nH]c3cccc1c23
relative IC50 (HS-PSS [1]): 13300 nM
relative IC50 (YST-1): 20100 nM
relative IC50 (HS-Sch-2): 13900 nM

O=C(O)c1ccc(Nc2ncc3c(n2)-c2ccc(Cl)cc2C(c2c(F)cccc2F)=NC3)cc1 [MLN-8054]
relative IC50 (HS-PSS [1]): 1260 nM
relative IC50 (YST-1): 625 nM
relative IC50 (HS-Sch-2): 1110 nM

CON(C)C(=O)N1N=C(c2cc(F)ccc2F)S[C@@]1(CCCN)c1ccccc1 [Filanesib]
relative IC50 (HS-PSS [1]): 4.62 nM
relative IC50 (YST-1): 2.28 nM
relative IC50 (HS-Sch-2): 2.19 nM

Cc1ccc2nc(CN(CCN(Cc3nc4ccc(C)cc4[nH]3)Cc3nc4ccc(C)cc4[nH]3)Cc3nc4ccc(C)cc4[nH]3)[nH]c2c1
relative IC50 (HS-PSS [1]): 7700 nM
relative IC50 (YST-1): 7770 nM
relative IC50 (HS-Sch-2): 8240 nM

O=C(NC1CCNCC1)c1n[nH]cc1NC(=O)c1c(Cl)cccc1Cl [AT7519]
relative IC50 (HS-PSS [1]): 277 nM
relative IC50 (YST-1): 69.3 nM
relative IC50 (HS-Sch-2): 337 nM

C=CC(=O)Nc1cc(Nc2nccc(-c3cn(C)c4ccccc34)n2)c(OC)cc1N(C)CCN(C)C [Osimertinib]
relative IC50 (HS-PSS [1]): 472 nM
relative IC50 (YST-1): 299 nM
relative IC50 (HS-Sch-2): 759 nM

CN(c1ncccc1CNc1nc(Nc2ccc3c(c2)CC(=O)N3)ncc1C(F)(F)F)S(C)(=O)=O
relative IC50 (HS-PSS [1]): 3340 nM
relative IC50 (YST-1): 2010 nM
relative IC50 (HS-Sch-2): 3410 nM

O=C(c1ccc(F)c(F)c1Nc1ccc(I)cc1F)N1CC(O)([C@@H]2CCCCN2)C1 [Cobimetinib]
relative IC50 (HS-PSS [1]): 159 nM
relative IC50 (YST-1): > 1000 nM
relative IC50 (HS-Sch-2): 300 nM

O=C(Nc1cccc(NC(=O)c2cccc(O)c2O)c1)c1cccc(O)c1O [MST-312]
relative IC50 (HS-PSS [1]): 3370 nM
relative IC50 (YST-1): 3120 nM
relative IC50 (HS-Sch-2): 984 nM

CCn1nnc2c(N3CCOCC3)nc(-c3ccc(NC(=O)Nc4ccc(C(=O)N5CCN(C)CC5)cc4)cc3)nc21 [PKI-402]
relative IC50 (HS-PSS [1]): 46.7 nM
relative IC50 (YST-1): 61.1 nM
relative IC50 (HS-Sch-2): 95.8 nM

CO[C@H]1C(=O)[C@]2(C)[C@@H](OC)C[C@H]3OC[C@@]3(OC(C)=O)[C@H]2[C@H](OC(=O)c2ccccc2)[C@]2(O)C[C@H](OC(=O)[C@H](O)[C@@H](NC(=O)OC(C)(C)C)c3ccccc3)C(C)=C1C2(C)C [Cabazitaxel]
relative IC50 (HS-PSS [1]): 418 nM
relative IC50 (YST-1): 0.74 nM
relative IC50 (HS-Sch-2): 0.94 nM

CNC(=O)c1nn(C)c2c1C(C)(C)Cc1cnc(Nc3ccc(N4CCN(C)CC4)cc3)nc1-2 [Milciclib]
relative IC50 (HS-PSS [1]): 779 nM
relative IC50 (YST-1): 351 nM
relative IC50 (HS-Sch-2): 1240 nM

CNC(=O)c1ccccc1Nc1cc(Nc2ccc(N3CCOCC3)cc2OC)ncc1C(F)(F)F [VS-4718]
relative IC50 (HS-PSS [1]): 3690 nM
relative IC50 (YST-1): 724 nM
relative IC50 (HS-Sch-2): 2610 nM

COc1cccc(OCCCN)c1-c1cc(Nc2cnc(C#N)cn2)n[nH]1 [Prexasertib]
relative IC50 (HS-PSS [1]): 1770 nM
relative IC50 (YST-1): 54.7 nM
relative IC50 (HS-Sch-2): 26 nM

O=C(CCCCCCNC(=O)c1cnc(N(c2ccccc2)c2ccccc2)nc1)NO [Rocilinostat]
relative IC50 (HS-PSS [1]): 2760 nM
relative IC50 (YST-1): 1240 nM
relative IC50 (HS-Sch-2): 1930 nM

NC(=O)c1cccc2cn(-c3ccc(C4CCCNC4)cc3)nc12 (centres undefined) [Niraparib]
relative IC50 (HS-PSS [1]): 1760 nM
relative IC50 (YST-1): 461 nM
relative IC50 (HS-Sch-2): 661 nM

Cc1cc2c(C(=O)NC[C@H](C)c3ccccc3)c(O)c(O)cc2c(O)c1-c1c(C)cc2c(C(=O)NC[C@H](C)c3ccccc3)c(O)c(O)cc2c1O [Sabutoclax]
relative IC50 (HS-PSS [1]): 8740 nM
relative IC50 (YST-1): 618 nM
relative IC50 (HS-Sch-2): 523 nM

N#CC(c1ccnc(OCc2ccc(CN3CCOCC3)cc2)n1)c1nc2ccccc2s1 (centres undefined) [Bentamapimod]
relative IC50 (HS-PSS [1]): 1690 nM
relative IC50 (YST-1): 1500 nM
relative IC50 (HS-Sch-2): 2690 nM

CCOc1cc2ncc(C#N)c(Nc3ccc(F)c(Cl)c3)c2cc1NC(=O)/C=C/CN(C)C [Pelitinib]
relative IC50 (HS-PSS [1]): 79.5 nM
relative IC50 (YST-1): 323 nM
relative IC50 (HS-Sch-2): 195 nM

CC(=O)c1cnc2ccc(-c3cc(Cl)c(O)c(Cl)c3)nc2c1N[C@H]1CC[C@H](CN(C)C)CC1 [OTSSP167]
relative IC50 (HS-PSS [1]): 339 nM
relative IC50 (YST-1): 10.8 nM
relative IC50 (HS-Sch-2): 26.1 nM

CC(C)Oc1ccc(C(=O)N[C@H](CNC(=O)CN(C)C)Cc2ccc(-c3cn4cccc([C@H](C)O)c4n3)cc2)cc1Cl
relative IC50 (HS-PSS [1]): 757 nM
relative IC50 (YST-1): 75.4 nM
relative IC50 (HS-Sch-2): 72.3 nM

Cn1ncc(Cl)c1-c1cc(C(=O)N[C@H](CN)Cc2ccc(F)c(F)c2)oc1Cl [Uprosertib]
relative IC50 (HS-PSS [1]): > 10000 nM
relative IC50 (HS-Sch-2): > 10000 nM
relative IC50 (HS-PSS [2]): > 10000 nM

Cc1cc(Nc2ncc(Cl)c(Nc3ccccc3S(=O)(=O)C(C)C)n2)c(OC(C)C)cc1C1CCNCC1 [Ceritinib]
relative IC50 (HS-PSS [1]): 91.3 nM
relative IC50 (YST-1): 359 nM
relative IC50 (HS-Sch-2): 926 nM

CC(=O)NCC(=O)N1[C@@H]2CC[C@H]1c1ccc(Nc3ncc(C(F)(F)F)c(NC4CCC4)n3)cc12
relative IC50 (HS-PSS [1]): 960 nM
relative IC50 (YST-1): 749 nM
relative IC50 (HS-Sch-2): 946 nM

CCN(CC)CCN(Cc1ccc(-c2ccc(C(F)(F)F)cc2)cc1)C(=O)Cn1c(SCc2ccc(F)cc2)nc(=O)c2c1CCC2 [Darapladib]
relative IC50 (HS-PSS [1]): 224 nM
relative IC50 (HS-Sch-2): 192 nM
relative IC50 (HS-PSS [2]): 250 nM

CC(C)CC(=O)Nc1n[nH]c2c1CN(C(=O)C1CCN(C)CC1)C2(C)C
relative IC50 (HS-PSS [1]): 604 nM
relative IC50 (YST-1): 859 nM
relative IC50 (HS-Sch-2): 1290 nM

CC(C)NC[C@@H](C(=O)N1CCN(c2ncnc3c2[C@H](C)C[C@H]3O)CC1)c1ccc(Cl)cc1 [Ipatasertib]
relative IC50 (HS-PSS [1]): 1160 nM
relative IC50 (YST-1): 879 nM
relative IC50 (HS-Sch-2): 1080 nM

— the supplement of paper PMC5579334
